Like-named read-outs stand apart in the source and are kept apart here.
Tests used:
T47D cells = experiment: crystal violet assay, cellular viability; assay type: cell-based; conditions: for IC50: Homo sapiens
[1] = system: murine triple negative breast cancer cell line 4T1; experiment: crystal violet assay, cellular viability; assay type: cell-based; conditions: Mus musculus, 4T1, 48 hours
Experimental: (§1) Compound 1 and compound 2 were tested in their efficacy to kill malignant MCF7 cancer cells. Briefly, 10.000 cells per well were seeded in a 96-well plat on one day and the next day selected compounds were added and incubated with the cells for 48 hrs. The cells were then fixed with 4% paraformaldehyde, stained with 0.05% crystal violet, washed with PBS, and solubilized in 1% SDS. The absorbance of the plate at 595 nm was then measured, quantifying the number of viable cells.
(§2) A number of compounds of the present invention were tested for cytotoxicity towards at least some of human breast cancer cell lines (MCF7, MDA-MB-231), human fibroblast (BJ) and murine triple negative breast cancer cell line 4T1 (Table 2).

[2] = system: non malignant cells (BJ), human fibroblast; experiment: crystal violet assay, cellular viability; assay type: cell-based
Experimental: as §1, §2

AsPC-1 cells = experiment: crystal violet assay, cellular viability; assay type: cell-based; conditions: Homo sapiens, ASPC1, AsPC-1, 48 hours
PaTu 8902 cells = experiment: crystal violet assay, cellular viability; assay type: cell-based; conditions: PaTu 8902, 48 hours
[3] = system: tamoxifen-resistant BT474 (Tam5R); experiment: crystal violet assay, tamoxifen resistant cells; assay type: cell-based; conditions: Homo sapiens, BT-474, grown in 5 μM tamoxifen
Experimental: as §1
(§3) To test whether compound 2 is active against resistant cancer cells, we used tamoxifen-resistant MCF7, T47D and BT474 cell lines. The IC50 values were again measured with the crystal violet assay performed as in example 18. We have documented that there is no statistically significant difference in the ability of compound 2 to induce cytostatic and cytotoxic effects between the parental cells sensitive to tamoxifen and the resistant ones that grow even in the presence of tamoxifen (Table 4).

[4] = system: tamoxifen-resistant MCF7 (Tam5R); experiment: crystal violet assay, tamoxifen resistant cells; assay type: cell-based; conditions: Homo sapiens, grown in 5 μM tamoxifen
Experimental: as §1, §3

[5] = system: tamoxifen-resistant T47D (Tam5R); experiment: crystal violet assay, tamoxifen resistant cells; assay type: cell-based; conditions: Homo sapiens, grown in 5 μM tamoxifen
Experimental: as §1, §3

non malignant cells (BJ) = experiment: AnnexinV/PI cell death assay; assay type: cell-based; conditions: for mean percentage of dead cells (AnnexinV/PI): 48 hrs
Experimental: To confirm such findings by an independent method, cell death-inducing potency (cytotoxic efficacy) of DFO and compound 2 have been tested via annexin V/PI staining commonly used as a measure of apoptotic/necrotic cell death. Briefly, cells were seeded in 12-well plate at 100,000 per well, incubated with the selected compounds for 48 hours, then floating cells were spun, adherent cells trypsinized and spun as well followed by the staining with AnnexinV-FITC and PI probes. Cells were then washed with PBS and measured via Fluorescence Activated Sorter.
We have then analyzed the percentage of death cells by the annexinV/PI staining as described in example 7. We have observed a significant potentiation in cell death induction when gallium was combined with compound 2 (Table 14)

MCF7 cells = experiment: cellular respiration, OXYGRAPH instrument; assay type: cell-based, human
Description: Application of compound 2 leads to marked inhibition of cellular respiration as evidenced by two independent methods: the Oxygraph instrument (Rohlenova, K., Sachaphibulkij, K., Stursa, J., Bezawork-Geleta, A., Blecha, J., Endaya, B., Werner, L., Cerny, J., Zobalova, R., Goodwin, J., Spacek, T., Alizadeh, P. E., Yan, B., Nguyen, M. N., Vondrusova, M., Sobol, M., Jezek, P., Hozak, P., Truksa, J., Rohlena, J., Dong, L. F., & Neuzil, J. (2017) Selective Disruption of Respiratory Supercomplexes as a New Strategy to Suppress Her2high Breast Cancer. Antioxid. Redox. Signal., 26, 84-103) (Table 6) and Seahorse instrument (Table 7). For Seahorse analysis, 20.000 or 30.000 cells were seeded in 96 well plates and incubated with compound 2 for 1 hour. Afterwards, oxygen consumption rate (OCR) and extracellular acidification rate (ECAR) were measured in three cycles of 3 minutes preceded by 3 minutes of mixing, using a Seahorse XFe96 analyzer (Agilent). Results express the mean values of the three cycles.

[6] = system: human triple negative breast cancer cells line MDA-MB-231; experiment: tumor growth in vivo, MDA-MB-231 model; parameters: species or system NOD-SCID gamma mice; conditions: for Relative tumor size: MDA-MB-231, 8 mg/kg i.p. twice per week
Experimental: In order to define the effect of compound 2 on tumor growth and progression in vivo, we tested its effect on the model of human triple negative breast cancer cells line MDA-MB-231, NOD-SCID gamma mice being the immunodeficient host. Mice were injected with 1 million of cells s.c. on the right flank. After appearance of tumors (15-60 mm^3) mice were randomized into three separate group, one receiving corn oil (control) and two compound 2 in a dose of 1 mg/kg or 8 mg/kg. Tumor progression was then monitored by ultrasound imaging Vevo770 and mice received the treatment twice per week, i.p. in approximately 100 ul of corn oil.

CC(=O)N(O)CCCCCNC(=O)CCC(=O)N(O)CCCCCNC(=O)CCC(=O)N(O)CCCCCN(CCCCCCCCCC[P+](c1ccccc1)(c1ccccc1)c1ccccc1)CCCCCCCCCC[P+](c1ccccc1)(c1ccccc1)c1ccccc1.[Cl-].[Cl-] [Compound 2, Triphenyl(3,14,25-trihydroxy-2,10,13,21,24-pentaoxo-31-(10-(triphenylphosphonio)decyl)-3,9,14,20,25,31-hexaazahentetracontan-41-yl)phosphonium chloride]
Selectivity index (IC50 non-malignant/IC50 malignant) (T47D cells; BJ vs T47D, 48 hours): 4.77 | IC50 (T47D cells; T47D Parental, read-out: IC50 crystal violet): 3000 nM | IC50 (T47D cells; T47D, 48 hours, crystal violet, read-out: IC50 cellular viability): 3000 nM | IC50 [1]: 2000 nM | Selectivity index (IC50 non-malignant/IC50 malignant) ([2]; BJ vs BJ (reference)): 1 | IC50 ([2]; Homo sapiens, Fibroblast, BJ non malignant, 48 hours, crystal violet): 14300 nM | IC50 (AsPC-1 cells): 2600 nM | IC50 (PaTu 8902 cells): 5500 nM | IC50 [3]: 4200 nM | IC50 [4]: 2100 nM | IC50 [5]: 1200 nM | mean percentage of dead cells (AnnexinV/PI) (non malignant cells (BJ); 5 μM): 6.7% | mean percentage of dead cells (AnnexinV/PI) (non malignant cells (BJ); 10 μM): 9.0% | mean percentage of dead cells (AnnexinV/PI) (non malignant cells (BJ); 20 μM): 29.8% | concentrations at which toxic effect could be detected in non-malignant BJ cells (non malignant cells (BJ); AnnexinV/PI, 48 hours): higher than 2004 | percentage of death cells by annexinV/PI staining (non malignant cells (BJ); ratio Ga:compound 2 0:1, 10 μM compound 2 alone): 9.0 (3.5) | mean O2 flow per cells (MCF7 cells; MCF7, 5 μM): 15.9 pmol/s/mL | mean O2 flow per cells (MCF7 cells; MCF7, 5 μM (5 h)): 9.8 pmol/s/mL | mean O2 flow per cells (MCF7 cells; MCF7, 25 μM): 7.1 pmol/s/mL | effect on relative tumor growth, in words ([6]; MDA-MB-231, 8 mg/kg): significantly reduces relative tumor growth | Relative tumor size ([6]; Day 0): 1.0 | Relative tumor size ([6]; Day 4): 1.3 | Relative tumor size ([6]; Day 7): 1.8 | Relative tumor size ([6]; Day 11): 2.6 | Relative tumor size ([6]; Day 14): 3.5 | Relative tumor size ([6]; Day 18): 5.3 | Relative tumor size ([6]; Day 21): 7.9
